These results are taken from US8378104B2 (OSI Pharmaceuticals, LLC, priority 2010, dated 2013).

Where a name gives a salt, the structure may show the parent alone.

What is called IC50 is the point on the concentration scale where inhibition reaches its midpoint.

The first experiment has as its target T1, TAK1-TAB1 fusion protein (Homo sapiens, UniProt O43318).
T1 construct: purchased Carna
T1 sequence (O43318 with tags, fused parts or gaps limits assumed): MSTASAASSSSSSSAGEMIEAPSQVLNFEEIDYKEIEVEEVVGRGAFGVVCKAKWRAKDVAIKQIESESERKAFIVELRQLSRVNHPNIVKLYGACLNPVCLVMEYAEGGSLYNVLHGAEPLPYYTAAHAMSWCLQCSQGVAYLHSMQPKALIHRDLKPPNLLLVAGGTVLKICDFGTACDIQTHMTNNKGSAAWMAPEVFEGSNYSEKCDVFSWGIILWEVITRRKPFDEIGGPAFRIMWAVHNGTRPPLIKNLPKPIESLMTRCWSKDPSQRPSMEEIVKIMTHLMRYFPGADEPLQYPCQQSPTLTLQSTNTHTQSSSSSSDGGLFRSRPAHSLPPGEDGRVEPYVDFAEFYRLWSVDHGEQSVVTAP
In words: TAK1 biochemical assay (AlphaScreen, GST-MAP2K7 substrate).
Settings: not given
In turn, `Cc1nn(C)c(C)c1-c1cnc(N)c2oc(-c3csc4cnccc34)cc12` [Example 294, 2-thieno[2,3-c]pyridin-3-yl-4-(1,3,5-trimethyl-1H-pyrazol-4-yl)-furo[2,3-c]pyridin-7-ylamine] came in with a 50% inhibitory concentration (IC50) greater than 10 µM.

As for `COc1nn(C)cc1-c1cnc(N)c2oc(-c3csc4cnccc34)cc12` [Example 343, 4-(3-methoxy-1-methyl-1H-pyrazol-4-yl)-2-thieno[2,3-c]pyridin-3-yl-furo[2,3-c]pyridin-7-ylamine], the IC50 was in the range of 0.1 to 1 µM.

The same experiment, now with this note: TAK1-TAB1 fusion protein, GST-MAP2K7 substrate; read-out: mean TAK1 IC50 (Col. A).
As for `COc1cccc(-c2cc3c(-c4cnn(C5CCN(C(C)=O)CC5)c4)cnc(N)c3o2)c1` [Example 161, 1-(4-{4-[7-amino-2-(3-methoxyphenyl)furo[2,3-c]pyridin-4-yl]-1H-pyrazol-1-yl}piperidin-1-yl)ethanone], the IC50 lay in the range of 1 to 10 µM.

In the case of `Cn1ccc(-c2cnc(N)c3oc(-c4csc5cnccc45)cc23)c1` [Example 389, 4-(1-methyl-1H-pyrrol-3-yl)-2-(thieno[2,3-c]pyridin-3-yl)furo[2,3-c]pyridin-7-amine trifluoroacetate], the IC50 was 1 to 10 µM.

For `CCCOc1cccc(-c2cc3c(-c4cnn(C5CCN(C(C)=O)CC5)c4)cnc(N)c3o2)c1` [Example 181, 1-(4-{4-[7-amino-2-(3-propoxyphenyl)furo[2,3-c]pyridin-4-yl]-1H-pyrazol-1-yl}piperidin-1-yl)ethanone], the half-maximal inhibitory concentration (IC50) is greater than 10 µM.

Consider `Cc1c(-c2cnc(N)c3oc(-c4csc5cnccc45)cc23)cnn1[C@H]1CC[C@H](O)CC1` [Example 305, 4-[4-(7-amino-2-thieno[2,3-c]pyridin-3-yl-furo[2,3-c]pyridin-4-yl)-5-methyl-pyrazol-1-yl]-cyclohexanol], for which the IC50 was 1 to 10 µM.

As for `Nc1ncc(-c2cnn(C3CCNCC3)c2)c2cc(-c3cccc4ccsc34)oc12` [Example 17, 4-{4-[7-amino-2-(1-benzothiophen-7-yl)furo[2,3-c]pyridine-4-yl]-1H-pyrazol-1-yl}piperidine hydrochloride], the IC50 lay within 1 to 10 µM.

In the case of `Nc1ncc(-c2cnn([C@H]3CC[C@H](O)CC3)c2)c2cc(-c3c(-c4cccc(F)c4)ccc4cnsc34)oc12` [Example 356, trans-4-(4-{7-amino-2-[6-(3-fluorophenyl)-1,2-benzothiazol-7-yl]furo[2,3-c]pyridin-4-yl}-1H-pyrazol-1-yl)cyclohexanol], the half-inhibitory concentration (IC50) was greater than 10 µM.

Turning to `COc1cccc(COc2cccc(-c3cc4c(-c5cnn(C6CCN(C(C)=O)CC6)c5)cnc(N)c4o3)c2)c1` [Example 207, 1-{4-[4-(7-amino-2-{3-[(3-methoxybenzyl)oxy]phenyl}furo[2,3-c]pyridin-4-yl)-1H-pyrazol-1-yl]piperidin-1-yl}ethanone], the IC50 was greater than 10 µM.

`Nc1ncc(-c2cnn(C3CCNCC3)c2)c2cc(-c3ccc4cc[nH]c4c3)oc12` [Example 29, 2-(1H-indol-6-yl)-4-[1-(piperidin-4-yl)-1H-pyrazol-4-yl]furo[2,3-c]pyridin-7-amine]: the IC50 lay within 1 to 10 µM.

Regarding `Nc1ncc(-c2ccsc2)c2cc(-c3csc4cnccc34)oc12` [Example 391, 2-(thieno[2,3-c]pyridin-3-yl)-4-(thiophen-3-yl)furo[2,3-c]pyridin-7-amine trifluoroacetate], the half-inhibitory concentration (IC50) was 1 to 10 µM.

As to `Nc1ncc(-c2cnn(C3CCNCC3)c2)c2cc(C3=CCNCC3)oc12` [Example 49, 4-[1-(piperidin-4-yl)-1H-pyrazol-4-yl]-2-(1,2,3,6-tetrahydropyridin-4-yl)furo[2,3-c]pyridin-7-amine dihydrochloride], the IC50 fell in the range of 1 to 10 µM.

As to `CC(=O)N1CCC(n2cc(-c3cnc(N)c4oc(-c5cccc(OCC6CCCCC6)c5)cc34)cn2)CC1` [Example 209, 1-[4-(4-{7-amino-2-[3-(cyclohexylmethoxy)phenyl]furo[2,3-c]pyridin-4-yl}-1H-pyrazol-1-yl)piperidin-1-yl]ethanone], the 50% inhibitory concentration (IC50) was greater than 10 µM.

On to `COCc1ccccc1-c1cc2c(-c3cnn(C4CCN(C(C)=O)CC4)c3)cnc(N)c2o1` [Example 195, 1-[4-(4-{7-amino-2-[2-(methoxymethyl)phenyl]furo[2,3-c]pyridin-4-yl}-1H-pyrazol-1-yl)piperidin-1-yl]ethanone], for which the half-inhibitory concentration (IC50) lay in the range of 1 to 10 µM.

With `CC(=O)N1CCC(n2cc(-c3cnc(N)c4oc(-c5cccc6ccncc56)cc34)cn2)CC1` [Example 190, 1-(4-{4-[7-amino-2-(isoquinolin-8-yl)furo[2,3-c]pyridin-4-yl]-1H-pyrazol-1-yl}piperidin-1-yl)ethanone], the IC50 was 1 to 10 µM.

With `CC(=O)N1CCC(n2cc(-c3cnc(N)c4oc(-c5cccc(CN)c5)cc34)cn2)CC1` [Example 178, 1-[4-(4-{7-amino-2-[3-(aminomethyl)phenyl]furo[2,3-c]pyridin-4-yl}-1H-pyrazol-1-yl)piperidin-1-yl]ethanone], the IC50 fell in the range of 0.1 to 1 µM.

For the molecule `CNc1ncc(-c2cnn(C3CCN(C(C)=O)CC3)c2)c2cc(-c3cccc4cnsc34)oc12` [Example 279, 1-(4-{4-[2-(1,2-benzothiazol-7-yl)-7-(methylamino)furo[2,3-c]pyridin-4-yl]-1H-pyrazol-1-yl}piperidin-1-yl)ethanone trifluoroacetate], the IC50 was 0.1 to 1 µM.

As to `CC(=O)N1CCC(n2cc(-c3cnc(N)c4oc(-c5cccc(OCc6ccccc6Cl)c5)cc34)cn2)CC1` [Example 166, 1-{4-[4-(7-amino-2-{3-[(2-chlorobenzyl)oxy]phenyl}furo[2,3-c]pyridin-4-yl)-1H-pyrazol-1-yl]piperidin-1-yl}ethanone], the half-inhibitory concentration (IC50) is greater than 10 µM.

`CC(=O)N1CCC(n2cc(-c3cnc(N)c4oc(-c5cccc(OCC(F)(F)F)c5)cc34)cn2)CC1` [Example 187, 1-[4-(4-{7-amino-2-[3-(2,2,2-trifluoroethoxy)phenyl]furo[2,3-c]pyridin-4-yl}-1H-pyrazol-1-yl)piperidin-1-yl]ethanone]: the IC50 lay within 1 to 10 µM.

As to `Nc1ncc(-c2cnn(C3CNC3)c2)c2cc(-c3cccc4cnccc34)oc12` [Example 64, 4-[1-(azetidin-3-yl)-1H-pyrazol-4-yl]-2-(isoquinolin-5-yl)furo[2,3-c]pyridin-7-amine], the IC50 was in the range of 0.1 to 1 µM.

On to `CC(=O)N1CCC(n2cc(-c3cnc(N)c4oc(-c5cccc(OCc6ccncc6)c5)cc34)cn2)CC1` [Example 203, 1-[4-(4-{7-amino-2-[3-(pyridin-4-ylmethoxy)phenyl]furo[2,3-c]pyridin-4-yl}-1H-pyrazol-1-yl)piperidin-1-yl]ethanone], for which the IC50 fell in the range of 0.1 to 1 µM.

Consider `Nc1ncc(-c2cnn(C3CCNCC3)c2)c2cc(-c3cccc4c3oc3ccccc34)oc12` [Example 36, 2-(dibenzo[b,d]furan-4-yl)-4-[1-(piperidin-4-yl)-1H-pyrazol-4-yl]furo[2,3-c]pyridine-7-amine], for which the IC50 was 0.1 to 1 µM.

`COc1c(-c2cnc(N)c3oc(-c4csc5cnccc45)cc23)cnn1C` [Example 344, 4-(5-methoxy-1-methyl-1H-pyrazol-4-yl)-2-thieno[2,3-c]pyridin-3-yl-furo[2,3-c]pyridin-7-ylamine]: the half-inhibitory concentration (IC50) was in the range of 0.1 to 1 µM.

Turning to `Cn1cc2c(-c3cc4c(-c5cnn([C@H]6CC[C@H](O)CC6)c5)cnc(N)c4o3)csc2cc1=O` [Example 259, 3-{7-amino-4-[1-(trans-4-hydroxycyclohexyl)-1H-pyrazol-4-yl]furo[2,3-c]pyridin-2-yl}-5-methylthieno[3,2-c]pyridin-6(5H)-one], the IC50 is greater than 10 µM.

As for `Cn1cc(-c2cnc(N)c3oc(-c4csc5cnccc45)cc23)c(C#N)n1` [Example 345, 4-(7-amino-2-thieno[2,3-c]pyridin-3-yl-furo[2,3-c]pyridin-4-yl)-1-methyl-1H-pyrazole-3-carbonitrile], the half-maximal inhibitory concentration (IC50) was greater than 10 µM.

Turning to `Nc1ncc(-c2cnn(C3CCNCC3)c2)c2c(Cl)c(-c3cccc4cnccc34)oc12` [Example 16, 3-chloro-2-(isoquinoolin-5-yl)-4-[1-(piperidin-4-yl)-1H-pyrazol-4-yl]furo[2,3-c]pyridin-7-amine], the concentration for half-maximal inhibition (IC50) was in the range of 1 to 10 µM.

Take `Cn1ncc2cccc(-c3cc4c(-c5cnn([C@H]6CC[C@H](O)CC6)c5)cnc(N)c4o3)c21` [Example 357, trans-4-{4-[7-amino-2-(1-methyl-1H-indazol-7-yl)furo[2,3-c]pyridin-4-yl]-1H-pyrazol-1-yl}cyclohexanol]: the half-maximal inhibitory concentration (IC50) lay in the range of 1 to 10 µM.

On to `Nc1ncc(-c2cnn(C3CCNCC3)c2)c2c(Cl)c(-c3ccccc3)oc12` [Example 12, 3-chloro-2-phenyl-4-[1-(piperidin-4-yl)-1H-pyrazol-4-yl]furo[2,3-c]pyridin-7-amine hydrochloride], for which the half-inhibitory concentration (IC50) was 0.1 to 1 µM.

`CC(=O)N1CCC(n2cc(-c3cnc(N)c4oc(-c5ccc(-c6ccn[nH]6)cc5)cc34)cn2)CC1` [Example 128, 1-[4-(4-{7-amino-2-[4-(1H-pyrazol-5-yl)phenyl]furo[2,3-c]pyridin-4-yl}-1H-pyrazol-1-yl)piperidin-1-yl]ethanone]: the 50% inhibitory concentration (IC50) fell in the range of 1 to 10 µM.

As for `CC(=O)N1CCC(n2cc(-c3cnc(N)c4oc(-c5cccc(-c6ccccc6)c5)cc34)cn2)CC1` [Example 160, 1-(4-{4-[7-amino-2-(biphenyl-3-yl)furo[2,3-c]pyridin-4-yl]-1H-pyrazol-1-yl}piperidin-1-yl)ethanone], the half-maximal inhibitory concentration (IC50) was in the range of 1 to 10 µM.

`Nc1ncc(-c2cnn(C3CCNCC3)c2)c2cc(-c3cccc4cn[nH]c34)oc12` [Example 45, 2-(1H-indazol-7-yl)-4-[1-(piperidin-4-yl)-1H-pyrazol-4-yl]furo[2,3-c]pyridin-7-amine]: the IC50 fell in the range of 0.1 to 1 µM.

Regarding `Cc1cc(-c2cnc(N)c3oc(-c4csc5cnccc45)cc23)c(C)s1` [Example 377, 4-(2,5-dimethyl-thiophen-3-yl)-2-thieno[2,3-c]pyridin-3-yl-furo[2,3-c]pyridin-7-ylamine], the half-maximal inhibitory concentration (IC50) is 1 to 10 µM.
